Test results from patent publication US20030095958A1, “Inhibitors of bace” (priority 2001, published 2003).

Target: BACE (Homo sapiens, UniProt P56817)
Assay: Ki Determination for the Inhibition of BACE (FS-1 peptide fluorescence cleavage assay)
Assay type: biochemical
Settings: apparent Ki; 50 nM BACE, 10 μM FS-1 substrate, 0.1M sodium acetate pH 4.5
Procedure, shortened: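 Human BACE (50 nM) was preincubated 15 min at room temperature with compound (2% DMSO) in 0.1 M sodium acetate pH 4.5, then 10 μM FS-1 peptide was added. Cleavage was followed by fluorescence (ex 355/em 495 nm), and apparent Ki came from fitting to the integrated competitive tight-binding inhibition equation.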

Chain of BACE (P56817 46-501): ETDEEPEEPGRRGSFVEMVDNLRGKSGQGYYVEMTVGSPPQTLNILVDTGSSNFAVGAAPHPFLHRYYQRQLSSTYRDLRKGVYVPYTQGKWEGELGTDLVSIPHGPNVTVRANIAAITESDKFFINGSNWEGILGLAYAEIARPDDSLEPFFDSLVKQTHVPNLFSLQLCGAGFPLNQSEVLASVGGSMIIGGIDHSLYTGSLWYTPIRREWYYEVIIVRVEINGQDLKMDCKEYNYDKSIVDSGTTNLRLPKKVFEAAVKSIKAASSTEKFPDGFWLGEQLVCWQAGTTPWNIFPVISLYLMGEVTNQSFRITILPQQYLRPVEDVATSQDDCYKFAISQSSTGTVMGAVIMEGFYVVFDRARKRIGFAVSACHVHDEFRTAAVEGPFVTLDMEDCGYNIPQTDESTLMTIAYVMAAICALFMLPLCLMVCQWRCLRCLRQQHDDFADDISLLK

| Structure (SMILES) | Ki |
| --- | --- |
| C1=C(c2cnc(OCc3ccccc3)nc2OCc2ccccc2)CCNC1 [Compound 210, 2,4-Bis-benzyloxy-5-(1,2,3,6-tetrahydro-pyridin-4-yl)-pyrimidine] | 3 to 30 µM |
| Cc1c(COc2ccc3c(c2)c2c(n3C(=O)c3ccc4ccccc4c3)CNCC2)cccc1C(F)(F)F [Compound 524, [6-(2-Methyl-3-trifluoromethyl-benzyloxy)-1,2,3,4-tetrahydro-b-carbolin-9-yl]-naphthalen-2-yl-methanone] | < 3 µM |
| O=C(c1cccc2ccccc12)n1c2c(c3cc(OCc4cc(C(F)(F)F)ccc4C(F)(F)F)ccc31)CCNC2 [Compound 517, [6-(2,5-Bis-trifluoromethyl-benzyloxy)-1,2,3,4-tetrahydro-b-carbolin-9-yl]-naphthalen-1-yl-methanone] | < 3 µM |

Other lines, results leading:

| Ki | Structure (SMILES) |
| --- | --- |
| < 3 µM | FC(F)(F)c1ccccc1OCc1ccc(COc2ccc3ccccc3c2)c(C2=CCNCC2)c1 [Compound 321, 4-[2-(Naphthalen-2-yloxymethyl)-5-(2-trifluoromethyl-phenoxymethyl)-phenyl]-1,2,3,6-tetrahydro-pyridine] |
| < 3 µM | COC(=O)C1CN(c2ccc(-c3ccc(C(F)(F)F)cc3)cc2NCc2ccc3ccccc3c2)CCN1 (centres unmarked) [Compound 192, 4-{3-[(Naphthalen-2-ylmethyl)-amino]-4′-trifluoromethyl-biphenyl-4-yl}-piperazine-2-carboxylic acid methyl ester] |
